In the test the target is Ubiquitin carboxyl-terminal hydrolase 30 (Homo sapiens) (UniProt Q70CQ3). As to the kind of experiment: ubiquitin-specific protease 30 DUB inhibitors, concentration-effect, biochemical, validation of primary actives (AID 1645865). The settings on record: purified USP30, Ub-rhodamine cleavage, fluorescence, 2 h.

Activity calls are given as the source filed them.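 Rule for the calls: active = maximal inhibition of the USP30 enzyme reaching 30% or more across the dose series; inactive = the rest.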 A value given as a limit tells only on which side of the number the result lay.

Chain of Ubiquitin carboxyl-terminal hydrolase 30 (Homo sapiens) (Q70CQ3 whole entry, looked up): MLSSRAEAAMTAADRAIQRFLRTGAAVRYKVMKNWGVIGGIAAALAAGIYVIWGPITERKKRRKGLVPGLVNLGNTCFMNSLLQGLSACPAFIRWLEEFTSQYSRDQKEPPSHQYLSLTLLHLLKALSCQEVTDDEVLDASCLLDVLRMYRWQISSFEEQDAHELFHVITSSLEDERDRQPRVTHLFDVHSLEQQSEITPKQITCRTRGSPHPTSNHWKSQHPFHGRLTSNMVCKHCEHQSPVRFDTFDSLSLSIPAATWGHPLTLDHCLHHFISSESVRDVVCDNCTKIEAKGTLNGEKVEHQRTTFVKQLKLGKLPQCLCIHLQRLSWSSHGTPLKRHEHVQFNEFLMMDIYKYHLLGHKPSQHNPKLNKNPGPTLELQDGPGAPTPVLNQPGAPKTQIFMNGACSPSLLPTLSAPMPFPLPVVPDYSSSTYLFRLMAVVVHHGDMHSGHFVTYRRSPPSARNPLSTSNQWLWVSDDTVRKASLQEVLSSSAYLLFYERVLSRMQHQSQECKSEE

Consider `CC[C@@]1(O)C[C@H](OC2CC(N(C)C)C(OC3CC(O)C(OC4CCC(=O)C(C)O4)C(C)O3)C(C)O2)c2c(cc3c(c2O)C(=O)c2c(O)ccc(O)c2C3=O)[C@H]1C(=O)OC` (stereo partly drawn), for which the IC50 was > 50 µM (inactive). For the molecule `COc1ccc(OCCn2c(C3CC(=O)N(c4cccc(C)c4)C3)nc3ccccc32)cc1` (stereo not drawn), the IC50 was 0.356 µM. As to `COc1ccc(Cl)cc1N1C(=O)[C@H]2[C@@H](C1=O)[C@]1(C(=O)Nc3c(C)cc(C)cc31)N1CCC[C@@H]21`, the IC50 was > 50 µM (inactive). For `NS(=O)(=O)c1ccc(NC(=O)Cn2cnc3cc([N+](=O)[O-])ccc3c2=O)cc1`, the IC50 is > 50 µM (inactive).

Take `Cc1cc(C(=O)N2CC(C(=O)Nc3cc(C(F)(F)F)ccc3Cl)C2)no1`: the IC50 was 29.3 µM. Consider `Cc1nc(-c2ccc3c(c2)nnn3CCN2CCOCC2)no1`, for which the IC50 was > 50 µM (inactive). For `O=C(NCCc1ccccc1)c1nnn(Cc2cccc(Cl)c2)c1-n1cccc1`, the IC50 is > 50 µM (inactive). For `O=C(NCc1ccncc1)C1CCN(c2cncnc2N2CCCCC2)CC1`, the IC50 was > 50 µM (inactive).

Turning to `CCN1C(=O)c2cccnc2Sc2cc(NC(=O)c3ccc(Cl)s3)ccc21`, the IC50 is > 50 µM (inactive).

On to `O=C(c1cc(Cl)ccc1Cl)N1CCN(c2ccc3nnc(-c4ccco4)n3n2)CC1`, for which the IC50 was > 50 µM (inactive). For `O=S(=O)(c1cccc2cccnc12)N(CCc1ccccc1)C1CCN(CCc2ccc(Cl)cc2)CC1`, the IC50 was > 50 µM (inactive).

Consider `Cc1cccc(C(=O)N2CCc3cc(-c4nc(NC(=O)CNc5ccccc5)sc4C)ccc32)c1`, for which the IC50 was > 50 µM (inactive). Take `Cc1ccccc1NC(=O)c1ccc(N2CCCCC2)nn1`: the IC50 is > 50 µM (inactive). As for `Cc1nn(Cc2ccccc2)c(Cl)c1C(=O)NC1CCCc2ccccc21` (stereo not drawn), the IC50 was > 50 µM (inactive). Then `COc1cccc(S(=O)(=O)N2CCn3nc(C(C)(C)C)cc3C2)c1`, with 24.6 µM; and `CCOc1ccc(-n2c(C)cc(/C=C(\C#N)c3nc4ccccc4[nH]3)c2C)cc1`, with > 50 µM (inactive). Regarding `Cc1ccc(NC(=O)c2ccc3c(c2)N(S(C)(=O)=O)CC3)cc1`, the half-inhibitory concentration (IC50) is 34 µM. Regarding `O=C(c1cscn1)N1CCC2(CC1)CC1(CO2)Nc2ccccc2-n2cccc21` (stereo not drawn), the IC50 is > 50 µM (inactive). As to `c1ccc(-c2ccc(NCc3ccc4c(c3)OCO4)nn2)cc1`, the IC50 was 35.1 µM. As for `COC(=O)c1ccccc1NC(=O)CSc1nnc(-c2ccc(C(C)(C)C)cc2)n1C1CCCC1`, the IC50 is 33.8 µM. The result for `CCOC(=O)c1cn(C2CC2)c2cc(N3CCNCC3)c([N+](=O)[O-])cc2c1=O` reads > 50 µM (inactive). The result for `CCN(C(=O)c1cc2c(s1)-c1ccccc1OC2)c1ccccc1F` reads > 50 µM (inactive); that for `Cc1nn(-c2ccc(Cl)cc2)c2[nH]c(=O)c(CNCC3CCCO3)cc12` (stereo not drawn), > 50 µM (inactive). Regarding `Cc1ccc2c(c1)-c1c(c(C(=O)N3CCN(c4ccccc4)CC3)nn1C)CS2`, the IC50 was > 50 µM (inactive). As for `O=C(Cc1cccs1)Nc1cc(F)c2nc(N3CCOCC3)ccc2c1`, the IC50 is > 50 µM (inactive). As for `COc1ccc(NC(=O)c2ccc(Nc3nnc(C)c4ccccc34)cc2)cc1`, the IC50 was > 50 µM (inactive). As for `COc1ccccc1CNC(=O)Nc1cccc2ccccc12`, the IC50 is 25.9 µM.

For the molecule `CCOC(=O)c1sc2c(c1C)c(=O)n(Cc1ccccc1)c(=O)n2CC(N)=O`, the IC50 was 45.5 µM. The result for `O=S(c1ccc2ccccc2c1)c1cnns1` (stereo not drawn) reads > 50 µM (inactive); that for `Cc1ccc(C)c(NS(=O)(=O)c2cc(-c3cnc(C4CC4)o3)ccc2C)c1`, > 50 µM (inactive). Take `COc1cc(NC(=O)c2ccc3c(c2)OCO3)ccc1-c1cc2ccccc2oc1=O`: the IC50 was 0.363 µM. Regarding `c1coc(CNc2nc3ccccc3n3nnnc23)c1`, the IC50 is > 50 µM (inactive). The result for `O=C(COC(=O)Cn1cnc2ccccc21)Nc1ccc2c(c1)OCCO2` reads > 50 µM (inactive); that for `CCn1cc2c(n1)c(=O)n(Cc1ccccc1)c(=O)n2CC(=O)Nc1ccc(OC)cc1`, 2.58 µM; that for `Cc1cc(C)n2nc(CNc3cccc(Cl)c3)nc2n1`, > 50 µM (inactive). Consider `CC(=O)Nc1ccc(-n2cnc(C(=O)NCc3ccc(C)cc3)c2)nc1`, for which the IC50 was 21.2 µM. On to `N#Cc1ccc(NC(=O)c2ccc(S(=O)(=O)N3CCCCC3)cc2)cc1`, for which the IC50 was 8.97 µM. With `C=C1CCC2[C@](C)(CCC[C@]2(C)C(=O)OC)[C@H]1CCc1ccoc1C[N+](C)(C)Cc1ccccc1` (stereo partly drawn), the IC50 was 16.6 µM. On to `COc1ccc(C2SCC(=O)Nc3c2c(=O)[nH]n3C2CCCCCC2)cc1` (stereo not drawn), for which the IC50 is 23.8 µM. The result for `Cc1cc(NC(=O)c2[nH]nc3c2CCc2ccccc2-3)no1` reads 4.47 µM; that for `O=C(Nc1ccc(Oc2cccc3cccnc23)cc1)c1cccs1`, > 50 µM (inactive). As to `N#Cc1cc2c(nc1SCC(=O)NCc1ccccc1)CCCC2`, the IC50 is > 50 µM (inactive). Then `CCC(C)(C)C1CCC2(CC1)N=C(N)Nc1nc3ccccc3n12` (stereo not drawn), with 28.6 µM; and `COc1ccc(Cn2cnc3c([nH]c4ccc(Br)cc43)c2=O)cc1`, with 0.833 µM; and `Cc1ccc2nc(NC(=O)C3CCCN3S(=O)(=O)c3ccc4c(c3)OCCO4)sc2c1` (stereo not drawn), with > 50 µM (inactive).

Regarding `CC(=O)Nc1ccc(Cc2nc(-c3ccc4c(c3)nc(C)c(=O)n4C3CCCC3)no2)cc1`, the IC50 is > 50 µM (inactive).

On to `COc1cccc(N2C(=O)N(CC(=O)NCc3ccc(Cl)cc3)c3ccccc3S2(=O)=O)c1`, for which the IC50 is 17 µM. For `O=C(NC1CC1)c1ccnn1-c1ccc2ccc(-c3ccncc3)cn12`, the IC50 is > 50 µM (inactive). With `O=C1C=CC(O)C2C1CC13SSC4(CC5C(=O)C=CC(O)C5N4C1=O)C(=O)N23` (stereo not drawn), the IC50 is 1 µM. Regarding `O=C(c1ccco1)N1CCCC2(C1)Nc1cccnc1NC2=NC1CCCC1` (stereo not drawn), the IC50 is > 50 µM (inactive).

Take `COc1cc(-c2cc(C(=O)Nc3cc(C)[nH]n3)c3ccccc3n2)cc(OC)c1OC`: the IC50 is 32.7 µM.

On to `CC1(C)Cc2c(sc3nc(Cc4ccccc4)nc(SCC(=O)Nc4ccccc4)c23)CO1`, for which the 50% inhibitory concentration (IC50) is 1.82 µM. For `CCC(=O)Nc1nc2cc(NC(=O)Nc3cc(C)cc(C)c3)ccc2s1`, the IC50 was 1.65 µM. In the case of `CC(C)CC(=O)Nc1cc(F)c2nc(N3CCOCC3)ccc2c1`, the IC50 was > 50 µM (inactive). Regarding `Cc1ccc(NC(=O)c2cnc3c(c2)c(=O)n(C)c(=O)n3C)cc1`, the IC50 was 1.71 µM. Regarding `O=C(c1ccc2cc[nH]c2c1)N1CCC(Nc2cccnc2)C1` (stereo not drawn), the IC50 was > 50 µM (inactive).

Regarding `Cc1ccc(C(=O)NCc2ccc(C(=O)Nc3cccc(C)c3)o2)cc1`, the concentration for half-maximal inhibition (IC50) is 26.9 µM.

For the molecule `CC(C)NC(=O)Cn1ccn2nc(-c3ccc(Cl)cc3)cc2c1=O`, the 50% inhibitory concentration (IC50) is 3.6 µM. For the molecule `COC(=O)CC1CC23OC2(C(=O)c2c(O)cccc2C3=O)C(C)O1` (stereo not drawn), the IC50 is > 50 µM (inactive).

On to `CN1CCN(c2ccc3nc(-c4ccccc4)c(-c4ccccc4)nc3c2)CC1`, for which the IC50 was > 50 µM (inactive). As for `COc1ccc2[nH]cc(S(=O)(=O)c3ccc(C)c(F)c3)c(=O)c2c1`, the half-inhibitory concentration (IC50) is 46.4 µM. As for `CC1CCCN1C(=O)c1ccn(-c2ccc3ccc(-c4cccnc4)cn23)n1` (stereo not drawn), the IC50 was > 50 µM (inactive). Consider `CC1CC[C@]2(NC1)O[C@H]1C[C@H]3[C@@H]4CC[C@H]5C[C@@H](O[C@@H]6O[C@H](CO)[C@H](O[C@@H]7O[C@H](CO)[C@@H](O)[C@H](O[C@@H]8OC[C@@H](O)[C@H](O)[C@H]8O)[C@H]7O[C@@H]7O[C@H](CO)[C@@H](O)[C@H](O)[C@H]7O)[C@H](O)[C@H]6O)CC[C@]5(C)[C@H]4CC[C@]3(C)[C@H]1[C@@H]2C` (stereo partly drawn), for which the IC50 was 39.5 µM. Consider `CC(=O)c1sc(NC(=O)/C=C/c2ccccc2)nc1-c1ccccc1`, for which the IC50 was 18 µM.

`COC(=O)c1ccc(Cn2cnc3ccc(Br)cc3c2=O)o1`: the IC50 was > 50 µM (inactive). In the case of `O=C(COc1ccc(Cl)cc1)Nc1noc(-c2ccccc2)n1`, the IC50 is 25.8 µM. Consider `Cc1ccc(C(C)C)cc1OCCOCCN1CCNCC1`, for which the IC50 was > 50 µM (inactive). On to `CCCc1c(C(=O)O)c(O[C@H]2O[C@H](C)[C@@H](OC)[C@H](OC)[C@@H]2OC)cc2cc3c(c(O)c12)C(=O)c1c(O)cc(O[C@@H]2O[C@@H](C)[C@H](O[C@H]4O[C@H](C)[C@@H](OC)[C@H](OC)[C@@H]4O)[C@@H](OC)[C@H]2O)cc1C3=O`, for which the IC50 is > 50 µM (inactive).

As to `O=C(Nc1ccc2c(c1)OCO2)c1cc(-c2cccnc2)n(-c2ccccc2)n1`, the IC50 was > 50 µM (inactive). With `Cc1c(C(=O)Nc2cccc(C(F)(F)F)c2)cnn1-c1ccccn1`, the IC50 is 36 µM.

In the case of `O=C(COC(=O)c1cc(Cl)c2c(c1)OCO2)Nc1ccc2[nH]c(=O)[nH]c2c1`, the IC50 was > 50 µM (inactive). Then `Cc1ccc(/C=C/C(=O)Nc2ccc3c(c2)OCCO3)cc1`, with > 50 µM (inactive). Then `Cc1ccc2cccc(OCc3nnc(SCC(=O)c4ccc(Cl)cc4)n3C)c2n1`, with 2.63 µM; and `CC1CCN(S(=O)(=O)c2ccc(C(=O)Nc3ccc(S(N)(=O)=O)cc3)cc2)CC1`, with 29.7 µM. As for `COc1ccc(Cl)cc1NC(=O)c1cc(-c2ccccn2)n[nH]1`, the IC50 was 0.164 µM. As to `COc1ccc(OC)c(NC(=O)CS(=O)(=O)c2cn(CC(=O)N3CCC(C)CC3)c3ccccc23)c1`, the IC50 was 42 µM. Then `Cc1ccc(OCC(=O)Nc2cccc(-c3nc4ncccc4o3)c2)c(C)c1`, with 34 µM.

For the molecule `CCCN1CCN(C(=O)c2cc(NC(=O)C3CCC3)cc3nc(C)ccc23)CC1`, the IC50 was > 50 µM (inactive).

For `Cc1nc(-c2noc(-c3ccncc3)n2)cn1CC(=O)N1CCN(c2ccc(F)cc2)CC1`, the IC50 was 39.1 µM. In the case of `Cc1nc(N2CCCC2)ncc1C(=O)Nc1ccc(F)c(F)c1`, the half-maximal inhibitory concentration (IC50) is 31.1 µM. Regarding `NC(=O)c1nnn(-c2ccc(NC(=O)c3ccc(F)c(F)c3)cc2)n1`, the IC50 is 15 µM. For the molecule `Cc1nc(SCC(=O)Nc2cc(Cl)ccc2C)c2oc3ccccc3c2n1`, the IC50 is 1.22 µM.

As to `COCCNC(=O)c1ccc(-c2ccc(N3CCCCC3)nc2)cc1`, the IC50 was 22.9 µM.
